According to PMC6604316 (Virology Journal, 2019):
Like-named read-outs stand apart in the source and are kept apart here. Marks after values point to notes of the source that are not given here.

Target: NA of A/Texas/12/2007 (H3N2 119 V) (Influenza A virus (A/Texas/12/2007(H3N2)), UniProt D1FVK3, I119V)
Assay: biochemical
Format: biochemical

CC(=O)N[C@H]1[C@H]([C@H](O)[C@H](O)CO)OC(C(=O)O)=C[C@@H]1N=C(N)N [Zanamivir, zanamivir] was tested, and the IC50 was 1.56 ± 0.55 nM.
oseltamivir carboxylate was tested, and the Fold change was 520.08^c fold and the IC50 (read-out: Mean IC50 (nM) ± SD) was 62.4 ± 2.16 nM.
